Experimental data: patent US8304446B2, “Compounds” (Glaxo Group Limited, priority 2009, dated 2012)
Counter-ions that a name gives are not always drawn.

Legend:
CCR4 = target: T1, CCR4 (Homo sapiens, UniProt P51679); assay: [35S]-GTPγS SPA binding assay for CCR4 antagonist activity; format: biochemical; conditions: CCR4 expressing CHO membranes; human MDC at EC80; [35S]-GTPγS competition
T1 construct: expressed in transfected cells; host or cells: CHO cell membranes
T1 sequence (P51679 1-360): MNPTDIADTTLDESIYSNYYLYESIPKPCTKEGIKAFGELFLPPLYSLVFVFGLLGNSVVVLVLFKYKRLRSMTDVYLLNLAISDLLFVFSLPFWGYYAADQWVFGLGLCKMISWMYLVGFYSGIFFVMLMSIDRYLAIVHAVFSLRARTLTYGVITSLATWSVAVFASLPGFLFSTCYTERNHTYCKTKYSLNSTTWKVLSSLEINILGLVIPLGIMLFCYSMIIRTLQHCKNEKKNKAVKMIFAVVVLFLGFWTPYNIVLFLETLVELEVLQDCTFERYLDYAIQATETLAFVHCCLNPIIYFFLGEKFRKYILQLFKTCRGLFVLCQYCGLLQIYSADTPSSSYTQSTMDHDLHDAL
Method: [35S]-GTPγS SPA Binding Assays for CCR4 Antagonist Activity
Antagonist potency was determined by a radioligand [35S]-GTPγS competition assay. Briefly, CCR4 expressing CHO membranes were homogenised by passing through a 23G needle. These membranes were then adhered to WGA-coated Leadseeker SPA beads in assay buffer (20 mM HEPES, 10 mM MgCl2, 100 mM NaCl, 0.05% BSA, 40 ug/ml Saponin and pH adjusted to 7.4 using KOH 5M) to generate a 3 μg/well final assay concentration (FAC) membrane and 250 μg/well FAC bead, solution.
The bead/membrane/[35S]-GTPγS/Agonist suspension was dispensed into white Greiner polypropylene 384-well plates (45 μl/well), containing 0.5 μl of compound. […] Plates were then read on a Viewlux instrument and luminescence was then plotted as a percentage of the maximum inhibitional response elicited by an IC100 of a standard antagonist.

CD4+ CCR4+ T cells = assay: Chemokine stimulated increases in cellular F-actin content; format: cell-based; conditions: Homo sapiens, T-cell, 0.5 h; PBMC from normal volunteers; antagonist 30 min at 37° C. before agonist for 15 sec; F-actin content by flow cytometry; read-out: pA2 (converted)
Method in brief: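 Human PBMC from citrated volunteer blood, stained for CD4 and CCR4, were pre-incubated with antagonist or vehicle (0.1% DMSO) for 30 min at 37 °C, then stimulated with agonist for 15 s and formaldehyde-fixed. F-actin was stained with phalloidin and read by flow cytometry as CD4+CCR4+ MFI relative to CD4+CCR4− cells.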

Row | SMILES | IC50 (CCR4) | Kb (CD4+ CCR4+ T cells)
1 | COc1cccc2c1c(NS(=O)(=O)c1ccc(Cl)s1)nn2Cc1cccc(CNC(=O)C2COCCN2C)c1 (single isomer, unassigned; enantiomer 1) [Example 124, N-[(3-{[3-{[(5-Chloro-2-thienyl)sulfonyl]amino}-4-(methyloxy)-1H-indazol-1-yl]methyl}phenyl)methyl]-4-methyl-3-morpholinecarboxamide Enantiomer 1] | 0.00398 to 0.0158 µM | ≤ 0.126 µM
2 | COc1cccc2c1c(NS(=O)(=O)c1ccc(Cl)s1)nn2Cc1cccc(CNC(=O)C2COCCN2)c1 (centres unmarked) [Example 6, N-[(3-{[3-{[(5-chloro-2-thienyl)sulfonyl]amino}-4-(methyloxy)-1H-indazol-1-yl]methyl}phenyl)methyl]-3-morpholinecarboxamide trifluoroacetate] | 0.00398 to 0.0158 µM | ≤ 0.126 µM
3 | COc1cccc2c1c(NS(=O)(=O)c1ccc(Cl)s1)nn2Cc1cccc(CNC(=O)[C@H]2COCCN2)c1 [Example 7, (3R)—N-[(3-{[3-{[(5-Chloro-2-thienyl)sulfonyl]amino}-4-(methyloxy)-1H-indazol-1-yl]methyl}phenyl)methyl]-3-morpholinecarboxamide hydrochloride] | 0.00398 to 0.0158 µM | ≤ 0.126 µM
4 | CN[C@H](C)C(=O)NCc1cccc(Cn2nc(NS(=O)(=O)c3ccc(Cl)s3)c3c(OC)cccc32)c1 [Example 10, N^1-[(3-{[3-{[(5-chloro-2-thienyl)sulfonyl]amino}-4-(methyloxy)-1H-indazol-1-yl]methyl}phenyl)methyl]-N^2-methyl-D-alaninamide hydrochloride] | 0.00398 to 0.0158 µM | ≤ 0.126 µM
5 | COc1cccc2c1c(NS(=O)(=O)c1ccc(Cl)s1)nn2Cc1cccc(CNC(=O)CCCC(=O)O)c1 [Example 139, 5-{[(3-{[3-{[(5-Chloro-2-thienyl)sulfonyl]amino}-4-(methyloxy)-1H-indazol-1-yl]methyl}phenyl)methyl]amino}-5-oxopentanoic acid] | 0.00398 to 0.0158 µM | –
6 | COc1cccc2c1c(NS(=O)(=O)c1ccc(Cl)s1)nn2Cc1cccc(CNC(=O)CCCCC(=O)O)c1 [Example 140, 6-{[(3-{[3-{[(5-Chloro-2-thienyl)sulfonyl]amino}-4-(methyloxy)-1H-indazol-1-yl]methyl}phenyl)methyl]amino}-6-oxohexanoic acid] | 0.00398 to 0.0158 µM | –
7 | COc1cccc2c1c(NS(=O)(=O)c1ccc(Cl)s1)nn2Cc1cccc(CNC(=O)[C@H]2CC[C@H](C(=O)O)CC2)c1 [Example 143, trans-4-({[(3-{[3-{[(5-Chloro-2-thienyl)sulfonyl]amino}-4-(methyloxy)-1H-indazol-1-yl]methyl}phenyl)methyl]amino}carbonyl)cyclohexanecarboxylic acid] | 0.00398 to 0.0158 µM | –
8 | COc1cccc2c1c(NS(=O)(=O)c1ccc(Cl)s1)nn2Cc1cccc(CNC(=O)CCCCCCC(=O)O)c1 [Example 144, 8-{[(3-{[3-{[(5-Chloro-2-thienyl)sulfonyl]amino}-4-(methyloxy)-1H-indazol-1-yl]methyl}phenyl)methyl]amino}-8-oxooctanoic acid] | 0.00398 to 0.0158 µM | –
9 | CC(=O)NCc1cccc(Cn2nc(NS(=O)(=O)c3ccc(Cl)s3)c3c(CO)cccc32)c1 [Example 148, N-[(3-{[3-{[(5-Chloro-2-thienyl)sulfonyl]amino}-4-(hydroxymethyl)-1H-indazol-1-yl]methyl}phenyl)methyl]acetamide] | 0.00398 to 0.0158 µM | –
10 | CC(=O)NCc1cccc(Cn2nc(NS(=O)(=O)c3ccc(Cl)s3)c3c(C(C)O)cccc32)c1 (centres unmarked) [Example 149, N-[(3-{[3-{[(5-Chloro-2-thienyl)sulfonyl]amino}-4-(1-hydroxyethyl)-1H-indazol-1-yl]methyl}phenyl)methyl]acetamide] | 0.00398 to 0.0158 µM | –
11 | CC(O)c1cccc2c1c(NS(=O)(=O)c1ccc(Cl)s1)nn2Cc1cccc(CNC(=O)C(C)(C)O)c1 (centres unmarked) [Example 151, N-[(3-{[3-{[(5-Chloro-2-thienyl)sulfonyl]amino}-4-(1-hydroxyethyl)-1H-indazol-1-yl]methyl}phenyl)methyl]-2-hydroxy-2-methylpropanamide] | 0.00398 to 0.0158 µM | –
12 | CC(O)c1cccc2c1c(NS(=O)(=O)c1ccc(Cl)s1)nn2Cc1cccc(CNC(=O)[C@H]2COCCN2)c1 (stereo partly drawn) [Example 152, (3R)—N-[(3-{[3-{[(5-Chloro-2-thienyl)sulfonyl]amino}-4-(1-hydroxyethyl)-1H-indazol-1-yl]methyl}phenyl)methyl]-3-morpholinecarboxamide formate salt] | 0.00398 to 0.0158 µM | –
13 | CC(C)(O)c1cccc2c1c(NS(=O)(=O)c1ccc(Cl)s1)nn2Cc1cccc(CNC(=O)[C@@H]2COCCN2)c1 [Example 156, (3S)—N-[(3-{[3-{[(5-Chloro-2-thienyl)sulfonyl]amino}-4-(1-hydroxy-1-methylethyl)-1H-indazol-1-yl]methyl}phenyl)methyl]-3-morpholinecarboxamide] | 0.1 to 0.398 µM | –

The next lines start with results.

Row | IC50 (CCR4) | SMILES | Kb (CD4+ CCR4+ T cells)
14 | 0.00398 to 0.0158 µM | CCC(=O)NCc1cccc(Cn2nc(NS(=O)(=O)c3ccc(Cl)s3)c3c(OC)cccc32)c1 [Example 2, N-[(3-{[3-{[(5-chloro-2-thienyl)sulfonyl]amino}-4-(methyloxy)-1H-indazol-1-yl]methyl}phenyl)methyl]propanamide] | ≤ 0.126 µM
15 | 0.00398 to 0.0158 µM | COc1cccc2c1c(NS(=O)(=O)c1ccc(Cl)s1)nn2Cc1cccc(CNC(=O)C(C)C)c1 [Example 3, N-[(3-{[3-{[(5-chloro-2-thienyl)sulfonyl]amino}-4-(methyloxy)-1H-indazol-1-yl]methyl}phenyl)methyl]-2-methylpropanamide] | ≤ 0.126 µM
16 | 0.00398 to 0.0158 µM | COc1cccc2c1c(NS(=O)(=O)c1ccc(Cl)s1)nn2Cc1cccc(CNC(=O)C(C)(C)C)c1 [Example 4, N-[(3-{[3-{[(5-chloro-2-thienyl)sulfonyl]amino}-4-(methyloxy)-1H-indazol-1-yl]methyl}phenyl)methyl]-2,2-dimethylpropanamide] | ≤ 0.126 µM
17 | 0.00398 to 0.0158 µM | COc1cccc2c1c(NS(=O)(=O)c1ccc(Cl)s1)nn2Cc1cccc(CNC(=O)[C@@H]2COCCN2)c1 [Example 8, (3S)—N-[(3-{[3-{[(5-Chloro-2-thienyl)sulfonyl]amino}-4-(methyloxy)-1H-indazol-1-yl]methyl}phenyl)methyl]-3-morpholinecarboxamide hydrochloride] | ≤ 0.126 µM
18 | 0.00398 to 0.0158 µM | COc1cccc2c1c(NS(=O)(=O)c1ccc(Cl)s1)nn2Cc1cccc(CNC(=O)C2CNCCN2)c1 (centres unmarked) [Example 16, N-[(3-{[3-{[(5-chloro-2-thienyl)sulfonyl]amino}-4-(methyloxy)-1H-indazol-1-yl]methyl}phenyl)methyl]-2-piperazinecarboxamide hydrochloride] | ≤ 0.126 µM
19 | 0.00398 to 0.0158 µM | COc1cccc2c1c(NS(=O)(=O)c1ccc(Cl)s1)nn2Cc1cccc(CNC(=O)c2ccc(C(=O)O)cc2)c1 [Example 142, 4-({[(3-{[3-{[(5-Chloro-2-thienyl)sulfonyl]amino}-4-(methyloxy)-1H-indazol-1-yl]methyl}phenyl)methyl]amino}carbonyl)benzoic acid] | –
20 | 0.00398 to 0.0158 µM | CC(O)c1cccc2c1c(NS(=O)(=O)c1ccc(Cl)s1)nn2Cc1cccc(CNC(=O)[C@@H]2COCCN2)c1 (stereo partly drawn) [Example 153, (3S)—N-[(3-{[3-{[(5-Chloro-2-thienyl)sulfonyl]amino}-4-(1-hydroxyethyl)-1H-indazol-1-yl]methyl}phenyl)methyl]-3-morpholinecarboxamide formate salt] | –
